{
  "source": "paper PMC6472032",
  "about": "(Marine Drugs, 2019)",
  "origin": "cited, not measured here",
  "conditions": "in vivo; cited from earlier work",
  "data": [
    {"substance": "desmopressin", "values": [
      {"measurement": "mean terminal half-life", "value": 3.7, "unit": "h"}
    ]}
  ]
}
